# Values of other authors, collected in US20100135984A1, “Anti-inflammatory compositions and methods” (Searete LLC, a limited liability corporation of the State …, priority 2008, published 2010).
# Legend:
# [1] = single agent, infused at 400 mg over one hour
# [2] = test system: proteasome; settings: cultured breast cancer cells; copper-bound
# [3] = test system: aldehyde dehydrogenase
# [4] = mice
# [5] = target: Fyn (Homo sapiens, UniProt P06241); settings: at nanomolar concentrations
# [6] = test system: Src family kinase
# Fyn, sequence (P06241 whole entry, species assumed): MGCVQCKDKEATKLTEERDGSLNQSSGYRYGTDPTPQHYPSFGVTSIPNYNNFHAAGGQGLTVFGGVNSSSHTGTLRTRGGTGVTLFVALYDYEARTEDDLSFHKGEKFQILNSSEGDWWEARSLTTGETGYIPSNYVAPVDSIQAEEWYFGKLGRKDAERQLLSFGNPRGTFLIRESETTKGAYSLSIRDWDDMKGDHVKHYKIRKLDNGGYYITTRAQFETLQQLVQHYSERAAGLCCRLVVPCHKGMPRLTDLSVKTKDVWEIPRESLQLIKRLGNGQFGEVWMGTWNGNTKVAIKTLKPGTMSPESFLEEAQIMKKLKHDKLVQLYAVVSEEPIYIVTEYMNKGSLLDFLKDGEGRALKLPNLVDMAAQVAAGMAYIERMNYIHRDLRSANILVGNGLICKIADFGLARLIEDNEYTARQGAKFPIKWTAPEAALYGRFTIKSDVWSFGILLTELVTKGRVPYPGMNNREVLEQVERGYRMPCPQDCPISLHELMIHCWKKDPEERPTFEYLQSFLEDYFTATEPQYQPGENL
structure (smiles),measurement,setting,value
"CCN(CC)CCCC(C)Nc1ccnc2cc(Cl)ccc12.O=P(O)(O)O.O=P(O)(O)O (stereo not drawn) [chloroquine phosphate, 7-chloro-4-[[4-(diethylamino)-1-methylbutyl]amino]quinoline phosphate (1:2)]",tolerability of infusion,[1],without complication
"CCN(CC)C(=S)SSC(=S)N(CC)CC [disulfiram, 1-(diethylthiocarbamoyldisulfanyl)-N,N-diethyl-methanethioamide]",proteasomal activity,[2],inhibits proteasomal activity
same,inhibition of aldehyde dehydrogenase,[3],inhibits aldehyde dehydrogenase without toxicity
"Cl.Cl.Nc1ccccc1Oc1ccc2c(N)nsc2c1 [Example M62812, 3-amino-6-(2-aminophenoxy)-1,2-benzisothiazole dihydrochloride]",prevention of lethal septic shock,[4],prevents lethal septic shock
"Cc1nc(Nc2ncc(C(=O)Nc3c(C)cccc3Cl)s2)cc(N2CCN(CCO)CC2)n1.O [dasatinib, N-(2-chloro-6-methylphenyl)-2-[[6-[4-(2-hydroxyethyl)-1-piperazinyl]-2-methyl-4-pyrimidinyl]amino]-5-thiazolecarboxamide, monohydrate]",inhibition of Fyn,[5],inhibits
CCN(CC)CCCC(C)Nc1ccnc2cc(Cl)ccc12 (stereo not drawn) [Chloroquine],inhibition of CpG-induced Src family kinase activation or its dependent cellular responses,[6],does not inhibit
